Where two headings read alike, the source gives them in different places.
Legend:
[1] = 3H Human Predicted Clearance Assay (tritiated analogs); format: in vitro ADME; design: unit not given here
Method: 3H Human Predicted Clearance Assay:
For certain compounds, tritiated analogs (H^3) were prepared to further determined their human predicted clearance with increased resolution. Those studies were performed as described above using the tritiated analogs. Data from those compounds is found in Table 2 below and reported in FIG. 1 (note ATV and DRV were not tritiated).

[2] = How it was run: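 Dog, rat and human liver microsomes (0.5 mg/mL) with NADPH-regenerating cofactor; test compound 1 uM, duplicates. Timepoints 2, 12, 25, 45, 65 min; protein removed by centrifugation, supernatant analysed by LC/MS/MS. Clint from t1/2.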
[3] = tested on: HIV-1 (IIIB) in MT-4 cells; assay: MT-4 HIV assay; format: cell-based
How it was run: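 MT-4 cells infected with HIV-1 IIIB (1:250 stock dilution) were incubated with 1:3 serially diluted compounds in RPMI with 10% FBS for 5 days at 37 °C. Cell Titer Glo luminescence was the readout. Plates included mock-infected wells, no-drug wells and 5 uM AZT controls.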

[4] = Human immunodeficiency virus 1, MT4, 120 h, HIV-1 (IIIB), MT-4 cells, 5 days, Cell Titer Glo, read-out: EC50
[5] = tritiated analogs, human liver microsomes
[6] = human liver microsomes 0.5 mg/mL, 1 uM compound, NADPH
[7] = Human immunodeficiency virus 1, MT4, 120 h
[8] = rat liver microsomes 0.5 mg/mL, 1 uM compound, NADPH

Compound	3H Human Predicted Cl. ([1]; human, 1 uM)	Dog. Pred. Cl. ([2]; dog, microsomes)	Human Pred Cl. ([2]; human, microsomes)	Rat. Pred. Cl. ([2]; rat, microsomes)	EC50 [3, 4]	3H Human Predicted Cl. [1, 5]	Human Pred Cl. [2, 6]	EC50 [3, 7]	Dog. Pred. Cl. ([2]; dog liver microsomes 0.5 mg/mL, 1 uM compound, NADPH)	Rat. Pred. Cl. [2, 8]	EC50 ([3]; HIV-1 (IIIB), MT-4 cells, 5 days, Cell Titer Glo, read-out: EC50)
COC(=O)N[C@H](C(=O)NN(Cc1c(F)cc(-c2ccn(C(F)F)n2)cc1F)C[C@H](O)[C@H](Cc1ccc(C#Cc2cnc(N3CC4CCC(C3)N4C3COC3)nc2)cc1)NC(=O)[C@@H](NC(=O)OC)C(C)(C)C(F)(F)F)C(C)(C)C [Example 23, Methyl ((5S,8S,9S,14S)-11-(4-(1-(difluoromethyl)-1H-pyrazol-3-yl)-2,6-difluorobenzyl)-9-hydroxy-15,15-dimethyl-8-(4-((2-(8-(oxetan-3-yl)-3,8-diazabicyclo[3.2.1]octan-3-yl)pyrimidin-5-yl)ethynyl)benzyl)-3,6,13-trioxo-5-(1,1,1-trifluoro-2-methylpropan-2-yl)-2-oxa-4,7,11,12-tetraazahexadecan-14-yl)carbamate]	0.07	0.21 L/H/kg	<0.11 L/H/kg	0.22 L/H/kg	4.82 nM	–	–	–	–	–	–
COC(=O)N[C@H](C(=O)N[C@@H](Cc1ccc(C#Cc2ccc(N3CCN4CCOC[C@H]4C3)nc2)cc1)[C@@H](O)CN(Cc1c(F)cc(-c2ccn(C(F)F)n2)cc1F)NC(=O)[C@@H](NC(=O)OC)C(C)(C)C(F)(F)F)C(C)(C)C(F)(F)F [Example 51, methyl ((5S,8S,9S,14S)-11-(4-(1-(difluoromethyl)-1H-pyrazol-3-yl)-2,6-difluorobenzyl)-16,16,16-trifluoro-8-(4-((6-((R)-hexahydropyrazino[2,1-c][1,4]oxazin-8(1H)-yl)pyridin-3-yl)ethynyl)benzyl)-9-hydroxy-15,15-dimethyl-3,6,13-trioxo-5-(1,1,1-trifluoro-2-methylpropan-2-yl)-2-oxa-4,7,11,12-tetraazahexadecan-14-yl)carbamate]	–	–	–	–	–	0.11	<0.11 L/H/kg	2.8 nM	–	–	–
COC(=O)N[C@H](C(=O)N[C@@H](Cc1ccc(C#Cc2ccc(N3CC4CCC(C3)N4C3COC3)nc2)cc1)[C@@H](O)CN(Cc1c(F)cc(-c2nnc(C3CC3)s2)cc1F)NC(=O)[C@@H](NC(=O)OC)C(C)(C)C(F)(F)F)C(C)(C)C(F)(F)F [Example 75, Methyl ((5S,8S,9S,14S)-11-(4-(5-cyclopropyl-1,3,4-thiadiazol-2-yl)-2,6-difluorobenzyl)-16,16,16-trifluoro-9-hydroxy-15,15-dimethyl-8-(4-((6-(8-(oxetan-3-yl)-3,8-diazabicyclo[3.2.1]octan-3-yl)pyridin-3-yl)ethynyl)benzyl)-3,6,13-trioxo-5-(1,1,1-trifluoro-2-methylpropan-2-yl)-2-oxa-4,7,11,12-tetraazahexadecan-14-yl)carbamate]	0.11	–	<0.11 L/H/kg	0.21 L/H/kg	3.41 nM	–	–	–	–	–	–
COC(=O)N[C@H](C(=O)N[C@@H](Cc1ccc(C#Cc2cnc(N3CCN(C4COC4)CC3)nc2)cc1)[C@@H](O)CN(Cc1c(F)cc(-c2ncccn2)cc1F)NC(=O)[C@@H](NC(=O)OC)C(C)(C)C(F)(F)F)C(C)(C)C(F)(F)F [Example 88, Methyl ((5S,8S,9S,14S)-11-(2,6-difluoro-4-(pyrimidin-2-yl)benzyl)-16,16,16-trifluoro-9-hydroxy-15,15-dimethyl-8-(4-((2-(4-(oxetan-3-yl)piperazin-1-yl)pyrimidin-5-yl)ethynyl)benzyl)-3,6,13-trioxo-5-(1,1,1-trifluoro-2-methylpropan-2-yl)-2-oxa-4,7,11,12-tetraazahexadecan-14-yl)carbamate]	–	–	–	–	4.57 nM	0.08	<0.11 L/H/kg	–	1.63 L/H/kg	<0.18 L/H/kg	–
COC(=O)N[C@H](C(=O)N[C@@H](Cc1ccc(C#Cc2ccc(N3C[C@H]4C[C@@H]3CN4C3COC3)nc2)cc1)[C@@H](O)CN(Cc1c(F)cc(-c2ccn(C(F)F)n2)cc1F)NC(=O)[C@@H](NC(=O)OC)C(C)(C)C(F)(F)F)C(C)(C)C(F)(F)F [Example 173, Methyl ((5S,8S,9S,14S)-11-(4-(1-(difluoromethyl)-1H-pyrazol-3-yl)-2,6-difluorobenzyl)-16,16,16-trifluoro-9-hydroxy-15,15-dimethyl-8-(4-((6-((1R,4R)-5-(oxetan-3-yl)-2,5-diazabicyclo[2.2.1]heptan-2-yl)pyridin-3-yl)ethynyl)benzyl)-3,6,13-trioxo-5-(1,1,1-trifluoro-2-methylpropan-2-yl)-2-oxa-4,7,11,12-tetraazahexadecan-14-yl)carbamate]	–	–	–	–	–	0.14	<0.11 L/H/kg	2.55 nM	–	1.2 L/H/kg	–
COC(=O)N[C@H](C(=O)N[C@@H](Cc1ccc(C#Cc2ccc(N3CC4CC(C3)N4C3COC3)nc2)cc1)[C@@H](O)CN(Cc1c(F)cc(-c2ccn(C(F)F)n2)cc1F)NC(=O)[C@@H](NC(=O)OC)C(C)(C)C(F)(F)F)C(C)(C)C(F)(F)F [Example 176, Methyl ((5S,8S,9S,14S)-11-(4-(1-(difluoromethyl)-1H-pyrazol-3-yl)-2,6-difluorobenzyl)-16,16,16-trifluoro-9-hydroxy-15,15-dimethyl-8-(4-((6-(6-(oxetan-3-yl)-3,6-diazabicyclo[3.1.1]heptan-3-yl)pyridin-3-yl)ethynyl)benzyl)-3,6,13-trioxo-5-(1,1,1-trifluoro-2-methylpropan-2-yl)-2-oxa-4,7,11,12-tetraazahexadecan-14-yl)carbamate]	0.09	–	<0.11 L/H/kg	0.75 L/H/kg	3.36 nM	–	–	–	–	–	–
COC(=O)N[C@H](C(=O)N[C@@H](Cc1ccc(-c2ccc(N3CC4CCC(C3)N4C3COC3)nc2)cc1)[C@@H](O)CN(Cc1c(F)cc(-c2ccn(C(F)F)n2)cc1F)NC(=O)[C@@H](NC(=O)OC)C(C)(C)C(F)(F)F)C(C)(C)C(F)(F)F [Example 208, Methyl ((5S,8S,9S,14S)-11-(4-(1-(difluoromethyl)-1H-pyrazol-3-yl)-2,6-difluorobenzyl)-16,16,16-trifluoro-9-hydroxy-15,15-dimethyl-8-(4-(6-(8-(oxetan-3-yl)-3,8-diazabicyclo[3.2.1]octan-3-yl)pyridin-3-yl)benzyl)-3,6,13-trioxo-5-(1,1,1-trifluoro-2-methylpropan-2-yl)-2-oxa-4,7,11,12-tetraazahexadecan-14-yl)carbamate]	0.11	–	0.16 L/H/kg	0.74 L/H/kg	2.51 nM	–	–	–	–	–	–
Methyl ((5S,8S,9S,14S)-11-(4-(1-(difluoromethyl)-1H-pyrazol-3-yl)-2,6-difluorobenzyl)-16,16,16-trifluoro-9-hydroxy-15,15-dimethyl-8-(4-((6-(4-(oxetan-3-yl)piperazin-1-yl)pyridin-3-yl)ethynyl)benzyl)-3,6,3-trioxo-5-(1,1,1-trifluoro-2-methylpropan-2-yl)-2-oxa-4,7,11,12-tetraazahexadecan-14-yl)carbamate [Example 112]	–	–	–	–	–	0.11	<0.11 L/H/kg	–	–	0.32 L/H/kg	4.45 nM

— patent US10294234B2, “HIV inhibitor compounds” (priority 2017, dated 2019)
